Assay results taken from PMC11855827, “High-Throughput Screening of Five Compound Libraries for Anthelmintic Activity and Toxicity Leads to the Discovery of Two Flavonoid Compounds” (International Journal of Molecular Sciences, 2025).
Where two headings read alike, the source gives them in different places.

Tested on: C. elegans
Experiment: microbe, parasite or virus in culture
Conditions: Caenorhabditis elegans
[1] = 0 h, read-out: Percentage of motility inhibition 0 h
[2] = 24 h, read-out: Percentage of motility inhibition 24 h
[3] = 0 h, read-out: Percentage of motility inhibition 0 h, Table S2, C. elegans SS assay, 110 μM, 0 h, averages of 4 data points
[4] = 24 h, read-out: Percentage of motility inhibition 24 h, Table S2, C. elegans SS assay, 110 μM, 24 h, averages of 4 data points

Compound | inhibition at 110 µM [1] [%] | inhibition at 110 µM [2] [%] | inhibition at 110 µM [3] [%] | inhibition at 110 µM [4] [%]
COC(=O)C1=CO[C@@H](O[C@@H]2O[C@H](CO)[C@@H](O)[C@H](O)[C@H]2O)[C@H]2[C@@H]1C=C[C@@]2(O)CO [Gardenoside] | 0 | 8 | – | –
O=C1c2ccccc2-n2c1nc1ccccc1c2=O [Tryptanthrin] | 11 | 0 | – | –
NC(=O)N/N=C/c1ccc([N+](=O)[O-])o1 [Nitrofurazone] | – | – | 25 | 22
CC(C)=CCC[C@](C)(O[C@@H]1O[C@H](CO[C@@H]2O[C@@H](CO)[C@H](O)[C@H]2O)[C@@H](O)[C@H](O)[C@H]1O)[C@H]1CC[C@]2(C)[C@@H]1[C@H](O)C[C@@H]1[C@@]3(C)CC[C@H](O[C@@H]4O[C@H](CO)[C@@H](O)[C@H](O)[C@H]4O[C@@H]4O[C@H](CO)[C@@H](O)[C@H](O)[C@H]4O)C(C)(C)[C@@H]3CC[C@]12C [Ginsenoside Rc] | – | – | 0 | 0
CC[C@@H]1CN2CC[C@]3(C(=O)Nc4ccccc43)[C@@H]2C[C@@H]1/C(=C\OC)C(=O)OC [Corynoxine B] | – | – | 5 | 20
CC(C)(C)OC(=O)N[C@H]1CCCCC/C=C\[C@@H]2C[C@@]2(C(=O)NS(=O)(=O)C2CC2)NC(=O)[C@@H]2C[C@@H](OC(=O)N3Cc4cccc(F)c4C3)CN2C1=O [Danoprevir] | – | – | 60 | 24
Nc1nc(NC2CC2)c2ncn([C@H]3C=C[C@@H](CO)C3)c2n1 [Abacavir] | – | – | 3 | 2
C/C(=C\CC[C@@H](C)[C@H]1CC[C@@]2(C)C3=CC[C@H]4C(C)(C)[C@@H](O)CC[C@]4(C)C3=CC[C@]12C)CO [Ganoderol B] | – | – | 5 | 35
COc1ccc(-c2cc(=O)c3c(O)c(OC)c(OC)cc3o2)cc1 [Salvigenin] | – | – | 22 | 3
COc1c(O)cc(O)c2c(=O)cc(-c3ccccc3)oc12 [Wogonin] | 23 | 5 | – | –
COC1=CC(=O)C[C@@H](C)[C@]12Oc1c(Cl)c(OC)cc(OC)c1C2=O [Griseofulvin] | – | – | 3 | 1
CSc1ccc(OCc2ncc([N+](=O)[O-])n2C)cc1 [Fexinidazole] | – | – | 11 | 29
Nc1nc2c(ncn2COCCO)c(=O)[nH]1 [Acyclovir] | – | – | 17 | 12
[H]/N=C(/N)NS(=O)(=O)c1ccc(N)cc1 [Sulfaguanidine] | – | – | 22 | 8
O=c1cc(-c2ccc(O)cc2)oc2cc(O[C@@H]3O[C@H](CO)[C@@H](O)[C@H](O)[C@H]3O)c([C@@H]3O[C@H](CO)[C@@H](O)[C@H](O)[C@H]3O)c(O)c12 [Saponarin] | – | – | 1 | 1
C[C@H](CC[C@@H](O)C(C)(C)O)[C@H]1CC[C@@]2(C)[C@@H]3CC=C4[C@@H](CC[C@H](O)C4(C)C)[C@]3(C)C(=O)C[C@]12C [Bryodulcosigenin] | – | – | 16 | 15
CC(=O)OC[C@]12[C@H](OC(C)=O)[C@H](OC(C)=O)[C@@H]3[C@@H](OC(C)=O)[C@@]14O[C@@]3(C)COC(=O)c1cccnc1CCC(C)C(=O)O[C@@H]([C@H](OC(=O)c1ccccc1)[C@@H]2OC(C)=O)[C@]4(C)O (some centres unmarked) [Wilforine] | – | – | 23 | 9
[H]/N=C(\N/C(=N/[H])NCCCCCCNC(=N)NC(=N)Nc1ccc(Cl)cc1)Nc1ccc(Cl)cc1 [Chlorhexidine] | – | – | 38 | 63
Oc1ccc2[nH]ccc2c1 [5‐Hydroxyindole] | – | – | 28 | 9
CC[C@H]1CN2CC[C@H]1C[C@H]2[C@H](O)c1ccnc2ccc(OC)cc12 [Hydroquinine] | – | – | 0 | 0
C/C=C1/C[C@@H](C)[C@@](C)(O)C(=O)OCC2=CC[N+]3([O-])CC[C@@H](OC1=O)[C@@H]23 (some centres unmarked) [Senecionine N‐oxide] | – | – | 39 | 43
CC1=C2C(=O)O[C@@H](c3ccoc3)[C@]2(C)CCC1 [Fraxinellone] | – | – | 0 | 6
CC(C)=CCC/C(C)=C/Cc1c(O)c(CC=C(C)C)c2c(c1O)C(=O)C1=C[C@@H]3C[C@H]4C(C)(C)O[C@@](C/C=C(/C)C(=O)O)(C3=O)[C@@]14O2 [Gambogenic acid] | – | – | 1 | 8
C=C(C)[C@H]1CN[C@H](C(=O)O)[C@H]1CC(=O)O [Kainic acid] | – | – | 0 | 0
C=C1C(=O)[C@@]23[C@H](O)C[C@@H]4C(C)(C)CC[C@H](O)[C@@]4(CO)[C@@H]2CC[C@@H]1[C@H]3O [Kamebakaurin] | – | – | 0 | 11
COC(=O)Nc1nc2ccccc2[nH]1 [Carbendazim] | – | – | 18 | 7
C[C@@H]1O[C@@H](O[C@H]2[C@H](O[C@H]3CC[C@]4(C)[C@H]5CC=C6[C@@H]7CC(C)(C)CC[C@]7(C(=O)O)CC[C@@]6(C)[C@]5(C)CC[C@H]4C3(C)C)OC[C@H](O[C@@H]3O[C@H](CO)[C@@H](O)[C@H](O)[C@H]3O)[C@@H]2O)[C@H](O)[C@H](O)[C@H]1O [Hederacolchiside A1] | – | – | 0 | 0

Compound | inhibition at 110 µM [1] [%] | inhibition at 110 µM [2] [%] | inhibition at 110 µM [3] [%] | inhibition at 110 µM [4] [%]
CC1=C(C/C=C(\C)CCC[C@H](C)CCC[C@H](C)CCCC(C)C)C(=O)c2ccccc2C1=O [Vitamin K1] | – | – | 6 | 13
COc1cc2c(cc1O)-c1cc3ccc(OC)c(OC)c3c[n+]1CC2 [Columbamine] | – | – | 1 | 0
C[C@@H]1O[C@@H](O[C@H]2[C@H](Oc3cc(O)c4c(=O)cc(-c5ccc(O)c(O)c5)oc4c3)O[C@H](CO)[C@@H](O)[C@@H]2O)[C@H](O)[C@H](O)[C@H]1O [Lonicerin] | – | – | 2 | 2
O=C1/C(=C/c2ccc(O)c(O)c2)COc2cc(O)ccc21 [Sappanone A] | – | – | 0 | 0
C[C@]12CC[C@@H]3c4ccc(O)cc4CC[C@H]3[C@@H]1C[C@@H](O)[C@@H]2O [Estriol] | – | – | 2 | 10
Nc1ccc(S(=O)(=O)Nc2ccc(Cl)nn2)cc1 [Sulfachloropyridazine] | – | – | 14 | 0
CC(C)=CCCC(C)CCO (centres unmarked) [Citronellol] | – | – | 15 | 28
O=c1c(O)c(-c2ccc(O)c(O)c2)oc2cc(O[C@@H]3O[C@H](CO)[C@@H](O)[C@H](O)[C@H]3O)cc(O)c12 [Quercimeritrin] | – | – | 0 | 3
Cc1cc2c(C(C)C)c(O)c(O)c(C=O)c2c(O)c1-c1c(C)cc2c(C(C)C)c(O)c(O)c(C=O)c2c1O [Gossypol] | – | – | 0 | 26
Cc1cn([C@@H]2C[C@@H](O)[C@H](CO)O2)c(=O)[nH]c1=O [Telbivudine] | – | – | 39 | 1
CC1(C)C(C=C(Cl)Cl)C1C(=O)OCc1cccc(Oc2ccccc2)c1 (centres unmarked) [Permethrin] | – | – | 9 | 7
O=C(CCc1ccc(O)c(O)c1)NCCCNCCCCNCCCNC(=O)CCc1ccc(O)c(O)c1 [Kukoamine A] | – | – | 0 | 32
O=c1cc(-c2ccc(O)cc2)oc2c([C@@H]3O[C@H](CO)[C@@H](O)[C@H](O)[C@H]3O)c(O)cc(O)c12 [Vitexin] | – | – | 39 | 0
CCCCC1C(=O)N(c2ccccc2)N(c2ccc(O)cc2)C1=O (centres unmarked) [Oxyphenbutazone] | – | – | 0 | 0
CCN1C[C@]2(COC)[C@H](O)C[C@H](OC)[C@]34C1[C@H]([C@H](OC)[C@H]23)[C@@]1(OC(C)=O)C[C@H](OC)[C@@]2(O)C[C@@H]4[C@@H]1[C@H]2OC(=O)c1ccc(OC)cc1 [Yunaconitine] | – | – | 24 | 5
O=C1Nc2ccccc2/C1=C1/Nc2ccccc2C1=O [Indirubin] | – | – | – | 6
COc1ccc(-c2coc3cc(O[C@@H]4O[C@H](CO)[C@@H](O)[C@H](O)[C@H]4O)ccc3c2=O)cc1 [Ononin] | – | – | 10 | 0
O=c1ccc2nccc3c4ccccc4n1c23 [Canthin‐6‐one] | – | – | 0 | 15
CC=CC(=O)N(CC)c1ccccc1C (mixture of isomers) [Crotamiton] | – | – | 23 | 24
O=[N+]([O-])c1cn2c(n1)OC[C@@H](OCc1ccc(OC(F)(F)F)cc1)C2 [PA‐824] | – | – | 33 | 0
COc1cc2c(cc1O)C[C@H]1c3c(cc(O)c(OC)c3-2)CCN1C [Boldine] | – | – | 0 | 0
[H]/N=C(\N/C(=N/[H])Nc1ccc(Cl)cc1)NC(C)C [Proguanil] | – | – | 36 | 6
CC1=C(/C=C/C(C)=C/C=C/C(C)=C/C(=O)O)C(C)(C)CCC1 [Retinoic acid] | – | – | 18 | 40
CC[C@@H]1CN2CC[C@@]3(C(=O)Nc4ccccc43)[C@@H]2C[C@@H]1/C(=C\OC)C(=O)OC [Corynoxine] | – | – | 3 | 3
Cc1ncc([N+](=O)[O-])n1CCO [Metronidazole] | – | – | 34 | 14
C=C1C(=O)O[C@H]2[C@H]1CCC(C)=C1CC[C@@](C)(O)[C@@H]12 [Micheliolide] | – | – | 0 | 0
C[C@H](CCC(=O)NCCS(=O)(=O)O)[C@H]1CC[C@H]2[C@@H]3CC[C@@H]4C[C@H](O)CC[C@]4(C)[C@H]3C[C@H](O)[C@]12C [Taurodeoxycholic acid] | – | – | 0 | 7
